Key:
[1] = target: T1, PAD4 enzyme (Homo sapiens (Human), UniProt Q9UM07); assay: Ammonia Release Biochemical Assay (citrullination detected via ammonia release); conditions: PAD4 120 nM, substrate BAEE, 60-min preincubation, read-out: NH3 release
Procedure, shortened: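 PAD4 (diluted to 120 nM) was preincubated 60 min at room temperature with compound (1% DMSO final) in HEPES pH 7.4 with DTT and BSA, then reacted 60 min with 1.5 mM BAEE in Ca2+-containing buffer. Ammonia released was detected after EDTA stop with o-phthalaldehyde/DTT (90 min, fluorescence ex 405/em 460 nm), giving IC50.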

[2] = target: T1, PAD4 enzyme; assay: FP Binding Assay; conditions: PAD4 1 uM, 10 nM fluorescein labelled probe JPAD-00085
Procedure: Binding of compounds with PAD4 enzyme was detected by FP assay. PAD4 enzyme was diluted to 1 uM in assay buffer (100 mM HEPES, 50 mM NaCl, 1 mM DTT, 5% Glycerol and 1 mM CHAPS) and added to wells containing various concentration of compounds or DMSO vehicle (1%) in a 384 well black plate. 10 nM of fluorescein labelled probe (JPAD-00085) was added to the plate. Assay plate was incubated for 60 minutes at room temperature before measuring FP reading at FP module (λex 485/λem 535 nm) on Pherastar. IC50 was calculated using XL-fit software model 205. (Ref: Nat Chem Biol. 2015 March; 11(3):189-91).

T1 sequence (Q9UM07 whole entry): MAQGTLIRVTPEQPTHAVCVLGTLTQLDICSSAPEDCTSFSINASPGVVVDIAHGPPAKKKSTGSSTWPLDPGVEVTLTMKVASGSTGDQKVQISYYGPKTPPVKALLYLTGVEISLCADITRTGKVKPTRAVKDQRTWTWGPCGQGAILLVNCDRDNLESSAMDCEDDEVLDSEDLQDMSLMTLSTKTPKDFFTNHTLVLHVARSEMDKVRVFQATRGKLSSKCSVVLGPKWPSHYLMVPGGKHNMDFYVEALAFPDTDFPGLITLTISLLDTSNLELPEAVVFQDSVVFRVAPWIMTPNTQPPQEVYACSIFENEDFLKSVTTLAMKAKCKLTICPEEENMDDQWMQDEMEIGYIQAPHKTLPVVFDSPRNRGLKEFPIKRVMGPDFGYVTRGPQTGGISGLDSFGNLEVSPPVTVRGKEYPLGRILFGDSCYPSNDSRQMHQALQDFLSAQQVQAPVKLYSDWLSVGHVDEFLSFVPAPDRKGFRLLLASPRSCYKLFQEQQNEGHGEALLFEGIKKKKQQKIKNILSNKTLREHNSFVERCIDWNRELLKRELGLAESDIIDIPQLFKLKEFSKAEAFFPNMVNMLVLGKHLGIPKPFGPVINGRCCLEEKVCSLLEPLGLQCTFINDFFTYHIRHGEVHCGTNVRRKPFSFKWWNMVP

| SMILES | IC50 [1] [nM] | IC50 [2] [nM] |
| --- | --- | --- |
| N[C@@H]1CCCN(C(=O)c2cc3c4c(c2)nc(-c2cc5ccccc5n2Cc2ccccc2)n4CCO3)C1 [Example 18, (R)-(3-aminopiperidin-1-yl)(2-(1-benzyl-1H-indol-2-yl)-3,4-dihydro-5-oxa-1,2a-diazaacenaphthylen-7-yl)methanone] | ≤ 1000 | 1000 to 10000 |
| N[C@@H]1CCCN(C(=O)c2cc3c4c(c2)nc(-c2cc5ccc(F)cc5n2CC2CC2)n4CCN3)C1 [Example 65, (R)-(3-aminopiperidin-1-yl)(2-(1-(cyclopropylmethyl)-6-fluoro-1H-indol-2-yl)-5,6-dihydro-4H-imidazo [1,5,4-de]quinoxalin-8-yl)methanone] | ≤ 1000 | ≤ 1000 |
| N[C@@H]1CCCN(C(=O)c2cc3c4c(c2)nc(-c2cc5ccccc5n2Cc2cccnc2)n4CCN3)C1 [Example 66, (R)-(3-aminopiperidin-1-yl)(2-(1-(pyridin-3-ylmethyl)-1H-indol-2-yl)-5,6-dihydro-4H-imidazo [1,5,4-de]quinoxalin-8-yl)methanone] | ≤ 1000 | 1000 to 10000 |
| CS(=O)(=O)N1CCn2c(-c3cc4ccccc4n3CC3CC3)nc3cc(C(=O)N4CCC[C@@H](N)C4)cc1c32 [Example 76, (R)-(3-aminopiperidin-1-yl)(2-(1-(cyclopropylmethyl)-1H-indol-2-yl)-6-(methylsulfonyl)-5,6-dihydro-4H-imidazo[1,5,4-de]quinoxalin-8-yl)methanone] | ≤ 1000 | 1000 to 10000 |
